Data on 14 compounds can be found in patent publication US4070470A, “Platelet aggregation inhibiting carbostyrils, their compositions and method of use” (Otsuka Pharmaceutical Co., Ltd., priority 1974, dated 1978).

In data set [1] the test system is blood platelets. The conditions noted are these: at low concentrations; cited from earlier work.
Data set [2] relates to thrombosis. The conditions noted are these: administered orally or intravenously to mammals including humans; cited from earlier work.
For data set [3], the system named is collagen-induced aggregation in rabbit platelet. The experiment in a line: Inhibition effect on collagen-induced aggregation in rabbit platelet. The conditions noted are these: rabbit platelet (PRP); for inhibition at 100 µM / inhibition at 10 µM / inhibition at 1 µM / inhibition at 0.01 µM: Oryctolagus cuniculus, Platelet; for inhibition at 100 µM: 10^-4 M test compound solution; for inhibition at 0.01 µM: 10^-8 M test compound solution. In kind it is cell-based. Here is the method: (§1) The aggregation inhibitory activity was determined using an AG-II type aggregometer (made by Bryston Manufacturing Co.). A blood sample was withdrawn from rabbits as a mixture of sodium citrate and whole blood in a proportion of 1 : 9 by volume and centrifuged at 1000 rpm for 10 minutes to obtain a platelet rich plasma (PRP). The resulting PRP was separated, and the remaining blood sample was further centrifuged at 3000 rpm for 15 minutes to obtain a platelet poor plasma (PPP).
(§2) The number of platelets in the PRP was counted in accordance with the Brecher-Clonkite Method, and the PRP was diluted with the PPP to prepare a PRP sample containing platelets in an amount of 300,000/[…] for an adenosine diphosphate (ADP)-induced aggregation test and a PRP sample containing platelets in an amount of 450,000/[…] for a collagen-induced aggregation test.
(§3) 0.01 ml of a solution of a test compound having a predetermined concentration (as shown in the Tables below) was then added to 0.6 ml of the PRP sample obtained above and the mixture was incubated at a temperature of 37° C for 1 minute. Then 0.07 ml of an ADP or collagen solution was added to the mixture. The mixture was then subjected to a transmittance determination and changes in the transmittance of the mixture were recorded using aggregometer at a stirrer rotation rate of 1100 rpm. In this test, Auren Beronal buffer (pH 7.35) was used for the preparation of solutions of ADP, collagen and the test compounds. ADP was adjusted to a concentration of 7.5 × 10^-5 M, and the collagen solution was prepared by triturating 100 mg of collagen with 5 ml of the above buffer and the supernatant obtained was used as a collagen inducer. Adenosine and acetylsalicyclic acid were used as controls for the ADP-induced aggregation test and the collagen-induced aggregation test, respectively. The aggregation inhibitory activity was determined in terms of the percent inhibition (%) with respect to the aggregation ratio of controls. The aggregation ratio can be calculated by the following equation: [formula] Wherein: "a" is the optical density of the PRP,
(§4) "b" is the optical density of the PRP having incorporated therein a test compound and an aggregation inducer, and
(§5) "c" is the optical density of the PPP.

For data set [4], the system named is ADP-induced aggregation in rabbit platelet. In words: Inhibition effect on ADP-induced aggregation in rabbit platelet. In kind it is cell-based. The conditions noted are these: rabbit platelet (PRP); for inhibition at 100 µM / inhibition at 10 µM / inhibition at 1 µM / inhibition at 0.01 µM / inhibition at 0.1 µM: Oryctolagus cuniculus, Platelet; for inhibition at 0.01 µM: 10^-8 M test compound solution. Here is the method:
as §1, §2, §3, §4, §5

Data set [5] can be described thus: Toxicity of benzcycloamide derivatives in mouse (LD50). The conditions noted are these: in vivo. The source says:
All the benzcycloamide derivatives represented by the aforesaid general formulas (I) are novel compounds having excellent platelet aggregation-inhibiting effects and are useful as preventives for thrombosis. […] Compounds tested: [drawing 17]

On to `CC(C)(C)NCC(O)COc1cccc2c1CCC(=O)N2` (stereo not drawn) [5-(2'-hydroxy-3-tert-butylamino)-propoxy-3,4-dihydrocarbostyril], for which, in data set [1], the “inhibition of the aggregation of blood platelets” value was “at low concentrations could specifically inhibit the aggregation of blood platelets”. In data set [2], the “preventing and treating thrombosis” value is “very effective for preventing and treating thrombosis”.
Consider `CCOC(=O)C(C)Oc1ccc2c(c1)CCC(=O)N2` (stereo not drawn) [A], for which the inhibition (usually the change of the read-out against control, counted positive when it falls) at 100 µM was found to be 71% in data set [3] and 57% in data set [4] (10^-4 M test compound solution). Moreover, the inhibition at 10 µM in data set [3] (10^-5 M test compound solution) came to 20%; in data set [4] (10^-5 M test compound solution), 25%. The figures for the inhibition at 1 µM in data set [3] (10^-6 M test compound solution) and in data set [4] (10^-6 M test compound solution) were 2% and 5%, respectively. For the same compound, the inhibition at 0.01 µM in data set [3] was 0%.
Consider `CCOC(=O)C(C)Oc1ccc2[nH]c(=O)ccc2c1` (stereo not drawn) [B], for which the results for the inhibition at 100 µM in data set [3] and in data set [4] (10^-4 M test compound solution) were 67% and 86%, respectively. Further, the inhibition at 10 µM in data set [3] (10^-5 M test compound solution) was found to be 12%; in data set [4] (10^-5 M test compound solution), 54%. Moreover, the inhibition at 1 µM in data set [3] (10^-6 M test compound solution) and in data set [4] (10^-6 M test compound solution) was -6% throughout. Further, the inhibition at 0.01 µM turned out to be 0% in data set [3] and 14% in data set [4].
As for `CCOC(=O)C(C)Oc1ccc2c(c1)CCC(=O)N2C` (stereo not drawn) [C], the inhibition at 100 µM in data set [3] and in data set [4] (10^-4 M test compound solution) was 36% in each case. The inhibition at 1 µM in data set [3] (10^-6 M test compound solution) and in data set [4] (10^-6 M test compound solution) was 0% each time. For the same compound, the inhibition at 0.01 µM in data set [3] and in data set [4] was 9% throughout.
Regarding `CCOC(=O)C(C)Oc1cccc2c1NC(=O)CC2` (stereo not drawn) [Compound M], the inhibition at 100 µM stood at 5% in data set [3] and 3% in data set [4] (10^-4 M test compound solution). For the same compound, the inhibition at 1 µM in data set [3] (10^-6 M test compound solution) turned out to be 2%; in data set [4] (10^-6 M test compound solution), 11%. Further, the inhibition at 0.01 µM in data set [3] came to 7%; in data set [4] it was 11%.
For the compound `CCOC(=O)C(C)Oc1ccc2c(c1)NC(=O)CC2` (stereo not drawn) [D], the inhibition at 100 µM in data set [3] was 2%; in data set [4] (10^-4 M test compound solution), -18%. Also, the inhibition at 1 µM in data set [3] (10^-6 M test compound solution) came out at 8%; in data set [4] (10^-6 M test compound solution), 14%. Also, the results for the inhibition at 0.01 µM in data set [3] and in data set [4] were 3% and 14%, respectively.
With `CCOC(=O)CCCOc1ccc2c(c1)CCC(=O)N2` [E], the inhibition at 100 µM in data set [3] was determined as 92%; in data set [4] (10^-4 M test compound solution), 100%. Further, the inhibition at 10 µM in data set [4] (10^-5 M test compound solution) amounted to 97%. Further, the LD50 in data set [5] (Female mouse) and in data set [5] (Male mouse) was > 1000 mg/kg in each case.
Take `CCCCCOC(=O)C(C)Oc1ccc2c(c1)CCC(=O)N2` (stereo not drawn) [F]: the inhibition at 100 µM in data set [3] was 88%; in data set [4] (10^-4 M test compound solution), 100%. Further, the values for the inhibition at 10 µM in data set [3] (10^-5 M test compound solution) and in data set [4] (10^-5 M test compound solution) were 8% and 79%, respectively. The figures for the inhibition at 1 µM in data set [3] (10^-6 M test compound solution) and in data set [4] (10^-6 M test compound solution) were 0% and 20%, respectively.
Consider `CC(C)OC(=O)C(C)Oc1ccc2[nH]c(=O)ccc2c1` (stereo not drawn) [G], for which the inhibition at 100 µM was 55% in data set [3] and 74% in data set [4] (10^-4 M test compound solution). In addition, the figures for the inhibition at 10 µM in data set [3] (10^-5 M test compound solution) and in data set [4] (10^-5 M test compound solution) were 25% and 38%, respectively. The inhibition at 1 µM is 3% in data set [3] (10^-6 M test compound solution) and 7% in data set [4] (10^-6 M test compound solution).
Take `CCOC(=O)CCCOc1cccc2c1CCC(=O)N2` [H]: the inhibition at 100 µM in data set [3] was determined as 90%; in data set [4] (10^-4 M test compound solution), 65%. Moreover, the values for the inhibition at 10 µM in data set [3] (10^-5 M test compound solution) and in data set [4] (10^-5 M test compound solution) were 8% and 18%, respectively. The inhibition at 1 µM in data set [3] (10^-6 M test compound solution) was 5%; in data set [4] (10^-6 M test compound solution) it was 2%.
Consider `CCCCCOC(=O)CCCOc1ccc2c(c1)CCC(=O)N2` [I], for which the inhibition at 100 µM in data set [3] was determined as 48%; in data set [4] (10^-4 M test compound solution) it was 82%. In addition, the inhibition at 10 µM in data set [3] (10^-5 M test compound solution) was determined as 22%; in data set [4] (10^-5 M test compound solution) it was 58%. In addition, the results for the inhibition at 1 µM in data set [3] (10^-6 M test compound solution) and in data set [4] (10^-6 M test compound solution) were 6% and 0%, respectively. Besides, the inhibition at 0.1 µM in data set [4] (10^-7 M test compound solution) was 8%.
Regarding `CCOC(=O)CCCOc1ccc2c(c1)CCC(=O)N2` [J], the “Inhibition effect on collagen-induced aggregation” value in data set [3] (10^-5 M test compound solution) came out at 86%; in data set [3] (10^-6 M test compound solution), 18%. Further, the “Inhibition effect on ADP-induced aggregation” value is reported as 100% in data set [4] (10^-4 M test compound solution), 90% in data set [4] (10^-5 M test compound solution), 25% in data set [4] (10^-6 M test compound solution) and -4% in data set [4] (10^-7 M test compound solution).
Regarding `CCOC(=O)CCCCCCOc1ccc2c(c1)CCC(=O)N2` [K], the results for the inhibition at 100 µM in data set [3] and in data set [4] (10^-4 M test compound solution) were 31% and 37%, respectively. The inhibition at 10 µM amounted to 13% in data set [3] (10^-5 M test compound solution) and 15% in data set [4] (10^-5 M test compound solution). The inhibition at 1 µM amounted to 6% in data set [3] (10^-6 M test compound solution) and 10% in data set [4] (10^-6 M test compound solution). Besides, the inhibition at 0.1 µM in data set [4] (10^-7 M test compound solution) amounted to 7%. Further, the figures for the 50% lethal dose (LD50) in data set [5] (Female mouse) and in data set [5] (Male mouse) were 500 to 1000 mg/kg and 750 to 1000 mg/kg, respectively.
Regarding `O=C(O)CCCCCCOc1ccc2c(c1)CCC(=O)N2` [L], the results for the inhibition at 100 µM in data set [3] and in data set [4] (10^-4 M test compound solution) were 15% and 13%, respectively. In addition, the inhibition at 10 µM in data set [3] (10^-5 M test compound solution) was determined as 14%; in data set [4] (10^-5 M test compound solution) it was 8%. The results for the inhibition at 1 µM in data set [3] (10^-6 M test compound solution) and in data set [4] (10^-6 M test compound solution) were 2% and 7%, respectively. Also, in data set [4] (10^-7 M test compound solution), the inhibition at 0.1 µM was -10%.
